Legend:
small DRG neurons [1] = assay: Test Example 2: combination effect with α1-adrenergic receptor blocker (high-K-induced rise in membrane potential, DiBAC4(3) fluorescence); type: cell-based, rat; details: control 72±3%
Experimental: This test was performed using male SD strain rats at 6 to 7 weeks of age after birth. The animals were reared in metal cages, and allowed to take food (CE-2; CLEA Japan) and water ad libitum. Rat spinal cord was dissected under halothane anesthesia. DRG tissue was removed from the spinal cord under a stereoscopic microscope, and recovered into an ice-cooled culture dish containing DMEM. The DRG tissue was digested using 0.25% trypsin and 0.38% collagenase, and DRG neurons were isolated. The DRG neurons were seeded to a cover glass coated with Poly-L-Lysine and laminin, and cultured. On the day after the start of cultivation, the DRG neurons were loaded with 5 μM DiBAC4(3) in the presence of 5% gaseous carbon dioxide at 37° C. for 1 hour or more. Thereafter, the neurons were transferred to an assay buffer solution (pH 7.3; 10 mM HEPES, 145 mM NaCl, 5 mM KCl, 2 mM CaCl2, 1 mM MgCl2, mM Glucose), and the fluorescence intensity of each DRG neuron was measured using the image analytical system AQUACOSMOS (Hamamatsu Photonics). When small DRG neurons were selected and stimulated with 60 mM high-concentration K solution (pH 7.3; 10 mM HEPES, 90 mM NaCl, 60 mM KCl, 2 mM CaCl2, 1 mM MgCl2, 10 mM Glucose), a rise in membrane potential was observed. When the 60 mM high-concentration K solution was replaced with the assay buffer solution, the transiently-elevated membrane potential fell rapidly. […]

small DRG neurons [2] = assay: Test Example 1: action of the compound A on C-fiber activation (high-K-induced rise in membrane potential, DiBAC4(3) fluorescence); type: cell-based, rat; details: compound A 3 μM pretreated between 1st and 2nd 60 mM K stimulations; control 72±3%
Experimental: This test was performed using male SD strain rats at 6 to 7 weeks of age after birth. The animals were reared in metal cages, and allowed to take food (CE-2; CLEA Japan) and water ad libitum.
Rat spinal cord was dissected under halothane anesthesia. DRG tissue was removed from the spinal cord under a stereoscopic microscope, and recovered into an ice-cooled culture dish containing DMEM. The DRG tissue was digested using 0.25% trypsin and 0.38% collagenase, and DRG neurons were isolated. The DRG neurons were seeded to a cover glass coated with Poly-L-Lysine and laminin, and cultured.
On the day after the start of cultivation, the DRG neurons were loaded with 5 μM DiBAC4(3) in the presence of 5% gaseous carbon dioxide at 37° C. for 1 hour or more. Thereafter, the neurons were transferred to an assay buffer solution (pH 7.3; 10 mM HEPES, 145 mM NaCl, 5 mM KCl, 2 mM CaCl2, 1 mM MgCl2, mM Glucose), and the fluorescence intensity of each DRG neuron was measured using the image analytical system AQUACOSMOS (Hamamatsu Photonics).
When small DRG neurons were selected and stimulated with 60 mM high-concentration K solution (pH 7.3; 10 mM HEPES, 90 mM NaCl, 60 mM KCl, 2 mM CaCl2, 1 mM MgCl2, 10 mM Glucose), a rise in membrane potential was observed. When the 60 mM high-concentration K solution was replaced with the assay buffer solution, the transiently-elevated membrane potential fell rapidly. […]

## COc1ccccc1N1CCN(CC(O)COc2cccc3ccccc23)CC1 (stereo not drawn) [naftopidil]
Small DRG neurons [1]; naftopidil 30 μM alone, treated between 1st and 2nd 60 mM K stimulations
  rise in membrane potential (ΔF/F), second rise relative to first rise as 100%: 40±5%

## O=C1Nc2ccccc2[C@H](c2ccccc2)N1C1CCN(Cc2cccc(OC(F)(F)F)c2)CC1 [compound A, (+)-3-{1-[3-(trifluoromethoxy)benzyl]piperidin-4-yl}-4-phenyl-3,4-dihydro-2(1H)-quinazolinone]
Small DRG neurons [2]
  rise in membrane potential (ΔF/F), second rise relative to first rise as 100%: 66±6%

## CCOc1ccccc1OCCN[C@H](C)Cc1ccc(OC)c(S(N)(=O)=O)c1 [tamsulosin]
Small DRG neurons [1]; tamsulosin 0.1 μM alone, pretreatment, 60 mM K stimulation
  change in membrane potential: nearly the same extent as with the control
